Here are results for 13 molecules from patent US5629340A, “Angiogenesis inhibitor and novel compound” (Tsumura & Co., priority 1993, dated 1997).

SMILES strings stand for the structures. Read-outs that look alike come from different tables or passages of the source.

Assay [1] relates to HOME cells (human omental capillary endothelial cells). The assay can be described thus: Tube formation of HOME cells induced by TGFα on type-1 collagen gel. The format is cell-based. The conditions noted are these: for Tube formation remaining (%) at 10 µg/mL: Homo sapiens, Endothelial cell, final concentration 10 μg/ml, read-out: inhibition of tube formation induced by TGFα ("inhibited to"); for Total tube length/HPF: Table 6, non-treatment 0.616, control 2.045; for Total tube length/HPF / Total length of lumen/HPF: compound 10 μg/ml, TGFα 10 ng/ml, 3 days; for Total length of lumen/HPF: Table 7, non-treatment 0.551, control 1.561. The source says:
(§1) An in-vitro angiogenesis models have been established, using human omental capillary endothelial cells (hereinafter referred to as "HOME cells"). One is the angiogenesis models in a process of wound healing formed when the HOME cells are damaged with a razor blade. Another one is a model of HOME cell migration, synthesis of a tissue plasminogen activation factor (t-PA), and HOME-cell tube formation, accelerated by TGFα.
The activity of the active ingredients to the tube formation of the HOME cells induced by TGFα was determined.
At first, 8 volume of a type 1 collagen solution (manufactured by Nitta Gelatin .), 1 volume of 10×M-199 and 1 volume of a reconstituted buffer) [200 mM Hepes, 0.05N sodium hydroxide and 260 mM sodium hydrogen carbonate] were mixed under ice cooling. The mixture was placed on plastic dishes (30 mm diameter, manufactured by Corning.) and allowed to stand still at 37° C. to make gel, thereby preparing a type-1 collagen gel.
Subsequently, the HOME cells were suspended in 10% FBS containing M-199 medium and then dispersed on the type 1 collagen gel mentioned above and incubated at 37° C.
When the HOME cells were incubated to confluent , they were transferred to 1% human serum containing M-199 mediums to which compounds (1), (2) and (4) to (12) (a final concentration: 10 μg/ml) were individually added together with TGFα (final concentration 10 ng/ml). These mediums were incubated for 3 days.
The HOME cells were also transferred to a 1% human serum containing M-199 medium with TGFα alone to prepare a control group and transferred to a 1% human serum containing M-199 medium to prepare a non-treatment group. They were also incubated for 3 days.
Two days after the incubation started, the culture mediums were exchanged. At three days, photographic picture of each dish was taken by a video camera (R5000H, Fuji, Tokyo), using a phase-contrast microscope at 200 magnification of the object. 8 views were taken for each dishes. The total tube length per one view formed by the HOME cells was measured by using a Cosmozone IS image analyzer (manufactured by Nikon).

The test system is the same in assay [2]. The assay can be described thus: Migration of wounded HOME cells (wound healing model), with or without TGFα. It counts as cell-based. The arrangement: activity: dose or concentration left out as unconfirmed. Particulars: Endothelial cell; for activity: 24 h, compound added, read-out: Cell-migration rate (% of non-treatment group); for inhibition at 10 µg/mL: TGFα-free medium, final concentration 10 μg/ml, approximately.
Text: as §1
Compound(s) as an active ingredient of the angiogenesis inhibitor of the present invention (hereinafter also simply refer:red to as "compound(s)") were evaluated with respect to an activity to cell migration with human HOME cells in which a wound healing had been made by a razor blade, and cell migration activity accelerated by TGFα.
The HOME cells to be used in this experiment were isolated from human omental fatty tissues and cultured in a M-199 medium containing 10% fetal bovine serum (FBS) over 3 to 5 generations.
TGFα was obtained from Collaborative Research Inc., Bedford, Ma.
The HOME cells were cultured as a monolayer on a collagen-coated plastic dish (35 mm .phi.) to confluent. The thus obtained HOME cells were wounded with a razor blade and then washed twice with a phosphate buffer saline solution (PBS). […] Further, HOME cells were cultured in 1% human serum containing M-199 medium with neither active ingredient nor TGFα at 37° C for 24 hours to prepare a non-treatment group.
On the dish on which the HOME cells were cultured, the numbers of migrated HOME cells were counted, which migrated to the exposed portion of the Collagen-coated plastic dish. A cell-migration rate was calculated, regarding the cell migration numbers of the non-treatment group as 100%.

In assay [3] the test system is M-5076 (mouse ovarian reticulo sarcoma). As to the kind of experiment: In-vivo anti-tumor activity, M-5076 transplanted in C57BL6 mouse. Particulars: for Relative tumor proliferation rate (Trv/Crv(%)): day 21, control 100.0; for anti-tumor activity in vivo: in words. The protocol:
In-vivo anti-tumor activity of the compounds of the present invention was tested.
M-5076 (mouse ovarian reticulo sarcoma, mouse ovary cancer) was intraperitoneally (i.p.) inoculated in C57BL6 mouse, and maintained by ip passage. The obtained ascites tumor cells werediluted with PBS (-) to cellular number of 2×10^7 cells/ml. 50 μl of the dilute solution (cellular number: 1×10^6) was subcutaneously (s.c.) transplanted to the right dorsal part of C57BL6 mouse (6 week old, female). From 7 days after the tumor cell inocutation, a sample was administrated to the mouse. The sample was prepared by suspending compounds (1) and (8) in 2% Tween 80 PBS (-) solution. The suspension was subcutaneously injected to a mouse in a dose of 100 μl per mouse. Three dosages, i.e., 400 mg/kg, 200 mg/kg and 100 mg/kg were set for the injection.
Mitomycin C (MMC) and Fumagillin Were employed in positive controls. MMC was intravascularly injected 4 times every two day. Other test samples and Fumagillin were intravascularly injected 6 times in total in a rate of 3 times/week. The test was carried out using N=9 in controls and N=5 in other groups.
Twenty one days after the inocutation of the tumor cells (14 days after the next day of the initiation of the sample injection), a relative tumor proliferation rate were examined to determine the anti-tumor effect of the samples.
The relative tumor proliferation rate are indicated by the following equation.
A significant difference test was performed by the Mann-Whitney U-Test. [formula]

Assay [4] relates to HOME cells co-cultured with human esophagus cancer cells (TE-1). As to the kind of experiment: Tube formation of HOME cells induced by human cancer cells (co-culture with TE-1 cells). It counts as cell-based. Particulars: Table 8; compound 10 μg/ml; TE-1 co-culture; non-treatment 0.348, control 1.551. The protocol:
In a co-culture of the HOME cells and human cancer cells, the activity of the compounds to the tube formation of the HOME cells induced by the human cancer cells was determined. This experiment was carried out in accordance with the co-culture method described in Morisaki, Saito, et al., "Co-culture test system of vascular endothelial cells and tunica media smooth muscle cells".
The HOME cells on the type-1 collagen gel prepared in Experiment 2 and human esophagus cancer cells (TE-1) were co-cultured to assemble a tube formation assay system. More specifically, using a plate (manufactured by Corning Co.,) having 6 holes (each hole size: 38×7 mm) in the outer vessel, 2 ml of 10% FBS containing M-199 medium was placed to each hole. The TE-1 cells were cultured in this medium. Thereafter, the medium was replaced with 2 ml of 1% FBS containing M-199 mediums which respectively contained compounds (1) and (8). Also, the medium was replaced with 1% FBS containing M-199 medium alone.
On the other hand, culture plates equipped with a Millipore filter at the inner vessel (size: 30×7 mm) bottom, were prepared. The type-1 collagen gel was placed in the inner vessel. On each of the type-1 collagen gel, 2 ml of the HOME cells suspension in the 10% FBS containing M-199 medium were planted. […]
The total tube length in the HOME cells cultured was measured in the same manner as in Experiment 2.

[5] abbreviates: 100 mg/kg, 6 injections, 3 times/week.
Where [6] appears, read: 200 mg/kg, 6 injections, 3 times/week.
[7] abbreviates: 400 mg/kg, 6 injections, 3 times/week.

The term inhibition denotes the percentage by which the read-out fell short of the control.

For the molecule `Cc1c(-c2ccc3c(c2)OCCO3)oc(-c2ccc3c(c2)OCCO3)c1C` [Compound 7, 3,4-dimethyl-2,5-bis(3,4-ethylenedioxyphenyl)furan], in assay [1], the Tube formation remaining (%) at 10 µg/mL lay in the range of 40 to 60% and the “Total tube length/HPF” value is listed as 1.195 10^3 μm. Further, the activity in assay [2] (TGFα Free) was determined as 33.3%. Moreover, in assay [2] (TGFα added), the activity was 31.4%.
For the molecule `Cc1c(-c2ccc3c(c2)OCO3)oc(-c2ccc3c(c2)OCO3)c1C` [Compound 6, 3,4-dimethyl-2,5-bis(3,4-methylenedioxyphenyl)-furan], the Tube formation remaining (%) at 10 µg/mL in assay [1] was 40 to 60%. In assay [1], the “Total tube length/HPF” value is 1.240 10^3 μm. For the same molecule, the activity came out at 45.2% in assay [2] (TGFα Free) and 59.9% in assay [2] (TGFα added). In assay [2], this molecule came in with an inhibition at 10 µg/mL of 50 to 86%.
`CCOC(=O)c1c(-c2ccc(O)c(OC)c2)oc(-c2ccc(O)c(OC)c2)c1C(=O)OCC` [Compound 12, Diethyl 2,5-bis(4'-hydroxy-3'-methoxyphenyl)furan-3,4-dicarboxylate]: in assay [1], the Tube formation remaining (%) at 10 µg/mL lay within 50 to 80% and the “Total length of lumen/HPF” value was 0.736 10^3 μm. Moreover, the activity in assay [2] (TGFα Free) amounted to 72.7%. In addition, the activity in assay [2] (TGFα added) was 58.4%.
On to `COc1ccc(-c2oc(-c3ccc(OC)c(OC)c3)c(C)c2C)cc1OC` [Compound 2], for which the Tube formation remaining (%) at 10 µg/mL in assay [1] is 40 to 60%. The “Total tube length/HPF” value in assay [1] was 1.115 10^3 μm. In addition, the activity in assay [2] (TGFα Free) was 69%; in assay [2] (TGFα added) it was 68.2%.
Regarding `CO[C@@]12[C@H](COC(N)=O)C3=C(C(=O)C(C)=C(N)C3=O)N1C[C@@H]1N[C@@H]12` [MMC, Mitomycin C, reference compound], the “Relative tumor proliferation rate (Trv/Crv(%))” value in assay [3] (3.2 mg/kg, intravascular, 4 times every two days) is on record as 7.9%.
`CO[C@@H]1[C@H](OC(=O)/C=C/C=C/C=C/C=C/C(=O)O)CC[C@]2(CO2)[C@H]1[C@@]1(C)O[C@@H]1CC=C(C)C` [Fumagillin, reference compound]: in assay [3] (30 mg/kg, 6 injections, 3 times/week), the “Relative tumor proliferation rate (Trv/Crv(%))” value turned out to be 41.7%.
With `COc1ccc(-c2oc(-c3ccc(OC)c(O)c3)c(C)c2C)cc1O` [Compound 8, 2,5-bis(3'-hydroxyl-4'-methoxyphenl)-3,4-dimethylfuran], the entries for the “Total length of lumen/HPF” value in assay [4] and in assay [1] were 0.277 10^3 μm and 0.422 10^3 μm, respectively. Also, the Tube formation remaining (%) at 10 µg/mL in assay [1] lay within 50 to 80%. For the same molecule, the “Relative tumor proliferation rate (Trv/Crv(%))” value in assay [3] (setting [5]) was 59.4%; in assay [3] (setting [6]), 41.4%; in assay [3] (setting [7]), 37.4%. In addition, the “anti-tumor activity in vivo” value in assay [3] is listed as “significant anti-tumor activity in vivo”. The activity turned out to be 69.4% in assay [2] (TGFα Free) and 44.2% in assay [2] (TGFα added). The inhibition at 10 µg/mL in assay [2] lay within 50 to 86%.
`COc1cc(-c2oc(-c3ccc(O)c(OC)c3)c(CC(C)C)c2CC(C)C)ccc1O` [Compound 10, 2,5-bis(4'-hydroxy-3'-methoxyphenyl)-3,4-diisobutylfuran]: in assay [1], the Tube formation remaining (%) at 10 µg/mL is 50 to 80% and the “Total length of lumen/HPF” value is recorded as 0.655 10^3 μm.
For `COc1cc(-c2oc(C)c(-c3ccc(O)c(OC)c3)c2C)ccc1O` [Compound 9, 2,4-bis(4-hydroxy-3-methoxyphenyl)-3,5-dimethylfuran], the Tube formation remaining (%) at 10 µg/mL in assay [1] lay in the range of 50 to 80%. For the same molecule, in assay [1], the “Total length of lumen/HPF” value is recorded as 0.496 10^3 μm. For the same molecule, the activity in assay [2] (TGFα Free) worked out at 63.3%; in assay [2] (TGFα added), 73%.
For `COc1cc(-c2oc(-c3ccc(O)c(OC)c3)c(C)c2C)ccc1O` [Compound 1], the “Total length of lumen/HPF” value is 0.250 10^3 μm in assay [4] and 0.337 10^3 μm in assay [1]. Moreover, in assay [1], the Tube formation remaining (%) at 10 µg/mL is 50 to 80%. Besides, the “Relative tumor proliferation rate (Trv/Crv(%))” value in assay [3] (setting [5]) is listed as 37.1%; in assay [3] (setting [6]), 37.4%; in assay [3] (setting [7]), 51.3%. Further, the “anti-tumor activity in vivo” value in assay [3] was “significant anti-tumor activity in vivo”. Besides, the activity in assay [2] (TGFα Free) came to 13.9%; in assay [2] (TGFα added), 24%. The molecule also registered an inhibition at 10 µg/mL in assay [2] of 50 to 86%.
For the molecule `COc1cc(-c2oc(-c3cc(OC)c(O)c(OC)c3)c(C)c2C)cc(OC)c1O` [Compound 11, 2,5-bis(4'-hydroxy-3',5'-dimethoxyphenyl)-3,4-dimethylfuran], in assay [1], the Tube formation remaining (%) at 10 µg/mL was in the range of 50 to 80% and the “Total length of lumen/HPF” value is 0.817 10^3 μm. Further, the activity in assay [2] (TGFα Free) stood at 81.2%. The activity in assay [2] (TGFα added) was found to be 56.1%.
As for `COc1cc(-c2oc(-c3ccc(OC(C)=O)c(OC)c3)c(C)c2C)ccc1OC(C)=O` [Compound 4], the “Total tube length/HPF” value in assay [1] is listed as 2.127 10^3 μm. The figures for the activity in assay [2] (TGFα Free) and in assay [2] (TGFα added) were 50.2% and 60.4%, respectively.
With `Cc1c(-c2ccc(O)c(O)c2)oc(-c2ccc(O)c(O)c2)c1C` [Compound 3, 3,4-dimethyl-2,5-bis(3,4-dihydroxyphenyl)furan], the figures for the activity in assay [2] (TGFα Free) and in assay [2] (TGFα added) were 52.7% and 73.1%, respectively.
